pEC50: −log10 of the molar value. Structures can show the parent of a compound that is named as a salt.
Biological target: Sphingosine 1-phosphate receptor 1 (Homo sapiens, UniProt P21453)
Assay: S1P1 agonism potentiation – cell-based, potentiator mode, 60K MLSMR set, dose response (AID 466)
Details: not given

Chain of Sphingosine 1-phosphate receptor 1 (P21453 whole entry): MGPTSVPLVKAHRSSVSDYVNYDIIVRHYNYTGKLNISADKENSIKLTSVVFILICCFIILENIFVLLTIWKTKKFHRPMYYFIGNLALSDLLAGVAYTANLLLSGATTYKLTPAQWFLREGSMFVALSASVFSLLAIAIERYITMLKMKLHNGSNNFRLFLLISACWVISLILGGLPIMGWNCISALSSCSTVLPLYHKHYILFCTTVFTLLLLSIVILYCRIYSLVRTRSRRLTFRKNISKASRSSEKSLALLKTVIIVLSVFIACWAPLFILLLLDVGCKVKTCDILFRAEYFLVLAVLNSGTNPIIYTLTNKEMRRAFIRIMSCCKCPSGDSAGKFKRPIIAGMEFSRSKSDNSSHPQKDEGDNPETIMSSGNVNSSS

Compound | pEC50
CCOc1ccc(S(=O)(=O)n2cnc3cc(C)c(C)cc32)cc1 [1-(4-Ethoxy-benzenesulfonyl)-5,6-dimethyl-1H-benzoimidazole] | 5.08
O=S(=O)(NCc1cn2ccsc2n1)c1ccc(Oc2ccccc2)cc1 [MLS000094195] | 5.30
Cc1cc(C)n2nc(SCC(=O)c3cc(C)n(-c4cc(C)on4)c3C)nc2n1 [1-[2,5-dimethyl-1-(5-methyl-1,2-oxazol-3-yl)pyrrol-3-yl]-2-[(5,7-dimethyl-[1,2,4]triazolo[1,5-a]pyrimidin-2-yl)sulfanyl]ethanone] | 5.25
Cc1cc(C=c2sc3nc4ccccc4n3c2=O)c(C)n1-c1ccccn1 [2-[(2,5-dimethyl-1-pyridin-2-yl-pyrrol-3-yl)methylidene]-[1,3]thiazolo[3,2-a]benzimidazol-1-one] | 6.95
Cc1cc(C=Nn2cnnc2)c(C)n1-c1ccc(OCc2ccccc2F)cc1 [MLS000112180] | 6.10
CN=C(NC#N)SCC(=O)c1ccc(Cl)cc1Cl [[2-(2,4-dichlorophenyl)-2-oxidanylidene-ethyl] N-cyano-N'-methyl-carbamimidothioate] | 5.36
CCc1c(C)sc(NC(=O)c2cc(-c3ccco3)on2)c1C#N [MLS000087225] | 5.44
CCOC(=O)/C=C/S(=O)(=O)c1ccc(NC(C)=O)cc1 | < 5.00
CCOc1ccc(-c2nnc(-c3cccnc3)o2)cc1OCC [2-(3,4-diethoxyphenyl)-5-(3-pyridinyl)-1,3,4-oxadiazole] | 5.63
COc1ccc(-n2nc3ccc(NS(C)(=O)=O)cc3n2)cc1Cl [MLS000049114] | 6.90
c1ccc(CNc2ncnc3ccccc23)cc1 [N-benzylquinazolin-4-amine] | 5.37
c1ccc(-c2ccc(-c3nc(-c4cccnc4)no3)cc2)cc1 [5-(4-phenylphenyl)-3-(3-pyridinyl)-1,2,4-oxadiazole] | 5.72
Cc1cc(C(=O)CSc2nnc(-c3ccco3)o2)c(C)n1-c1ccc2c(c1)OCCO2 [1-[1-(2,3-dihydro-1,4-benzodioxin-6-yl)-2,5-dimethyl-3-pyrrolyl]-2-[[5-(2-furanyl)-1,3,4-oxadiazol-2-yl]thio]ethanone] | 5.03
COc1ccc(-c2nc3cc(NC(=O)Cc4ccc(OC)c(OC)c4)ccc3o2)cc1 [2-(3,4-dimethoxyphenyl)-N-[2-(4-methoxyphenyl)-1,3-benzoxazol-5-yl]acetamide] | 5.04
CCn1nc(-c2ccccc2)nc2c(=O)n(C)c(=O)nc1-2 [1-Ethyl-6-methyl-3-phenyl-1H-pyrimido[5,4-e][1,2,4]triazine-5,7-dione] | 5.37
Cc1oc(-c2ccccc2)nc1Cn1cccc1C1=NC(c2ccccc2)CO1 (stereo not drawn) [SMR000026251] | 6.16
O=C(CCc1nc(-c2ccccc2F)no1)Nc1ccc(Oc2ccccc2)cc1 [3-[3-(2-fluorophenyl)-1,2,4-oxadiazol-5-yl]-N-(4-phenoxyphenyl)propanamide] | 5.32
O=C(CCC(=O)N(Cc1ccco1)C(C(=O)NC1CCCC1)c1ccncc1)Nc1cccnc1 (stereo not drawn) [MLS000033292] | < 4.02
CCOc1ccc(-c2nc(-c3ccncc3)no2)cc1OCC [4-[5-(3,4-diethoxyphenyl)-1,2,4-oxadiazol-3-yl]pyridine] | 6.65
CCOC(=O)c1c(C)[nH]c(C(=O)C(C)OC(=O)c2cccc(OCc3c(C)noc3C)c2)c1C (stereo not drawn) [MLS000054923] | 5.34
COc1ccc(-c2nc(-c3ccccc3OC)no2)cc1OC [5-(3,4-dimethoxyphenyl)-3-(2-methoxyphenyl)-1,2,4-oxadiazole] | 6.86
OC(c1cccc(OCc2ccccc2)c1)c1nnc(-c2ccccc2)o1 (stereo not drawn) [(3-benzoxyphenyl)-(5-phenyl-1,3,4-oxadiazol-2-yl)methanol] | 5.58

The remaining lines, values ahead:

pEC50 | Compound
5.47 | CCOC(=O)C1C(=O)C=C(c2ccc(OC)cc2)CC1c1ccco1 (stereo not drawn) [6-(2-furanyl)-4-(4-methoxyphenyl)-2-oxo-1-cyclohex-3-enecarboxylic acid ethyl ester]
6.30 | Cc1cc(C=Nn2cnnc2)c(C)n1-c1ccc(OCc2ccc(F)cc2)cc1 [MLS000112167]
5.26 | COC(=O)c1cc(NCc2ccccc2F)ccc1N1CCOCC1 [5-[(2-fluorobenzyl)amino]-2-morpholino-benzoic acid methyl ester]
5.25 | Cc1cc(C(=O)N2CCN(C(c3ccccc3)c3ccccc3)CC2)on1 [(4-benzhydrylpiperazin-1-yl)-(3-methyl-1,2-oxazol-5-yl)methanone]
< 5.00 | CC1CCCC(C)N1C(=O)CN1CCN(c2nc(-c3ccc(F)cc3)cs2)CC1 (stereo not drawn) [1-(2,6-Dimethyl-piperidin-1-yl)-2-{4-[4-(4-fluoro-phenyl)-thiazol-2-yl]-piperazin-1-yl}-ethanone]
5.83 | Cn1c(C(=O)N2CCCc3ccccc32)cc2sccc21 [(3,4-Dihydro-2H-quinolin-1-yl)-(4-methyl-4H-thieno[3,2-b]pyrrol-5-yl)-methanone]
4.19 | COCCn1c(C)cc(C(=O)CSc2nc3ccccc3c(=O)[nH]2)c1C [2-[[2-[1-(2-methoxyethyl)-2,5-dimethyl-3-pyrrolyl]-2-oxoethyl]thio]-1H-quinazolin-4-one]
5.00 | CC(C)(CC(=O)N1CCN(c2ccc(Cl)cc2)CC1)CC1=NS(=O)(=O)c2ccccc2N1 [1-[4-(4-chlorophenyl)-1-piperazinyl]-4-(1,1-dioxo-4H-1,2,4-benzothiadiazin-3-yl)-3,3-dimethyl-1-butanone]
5.06 | CCCC(=O)N1CCN(c2ccc(NC(=O)c3cc4ccccc4o3)cc2Cl)CC1 [MLS000096729]
5.21 | Cc1cc(C(=O)CSc2nnc(-c3ccccc3)n2-c2ccccc2)c(C)n1-c1nnc[nH]1
< 4.02 | CCOC(=O)c1ccc2c(c1)C(=O)N(C1CCCCC1)C2=O [2-cyclohexyl-1,3-diketo-isoindoline-5-carboxylic acid ethyl ester]
< 4.52 | Cc1cc(C(=O)CC#N)c(C)n1-c1ccc(OC(F)F)cc1 [3-[1-[4-(difluoromethoxy)phenyl]-2,5-dimethyl-3-pyrrolyl]-3-oxopropanenitrile]
5.31 | O=C(CSc1nnc(Cn2nnc3ccccc32)o1)N(Cc1ccc(F)cc1)c1ccccc1 [2-(5-Benzotriazol-1-ylmethyl-[1,3,4]oxadiazol-2-ylsulfanyl)-N-(4-fluoro-benzyl)-N-phenyl-acetamide]
< 4.52 | COc1ccc(S(=O)(=O)Cc2ccc(C(=O)N3CCN(c4cccc(C)c4C)CC3)o2)cc1 [MLS000120226]
5.32 | CCOc1ccc(C(=O)Nc2ccc(Cl)cn2)cc1Cl [3-chloranyl-N-(5-chloranylpyridin-2-yl)-4-ethoxy-benzamide]
5.02 | CC(=N)C(C#N)C(=O)CSc1nnc(SCc2ccc(Cl)cc2)s1 (stereo not drawn) [(E)-3-amino-2-[2-[[5-[(4-chlorobenzyl)thio]-1,3,4-thiadiazol-2-yl]thio]acetyl]but-2-enenitrile]
5.06 | COc1ccc(N2CCn3c2nc2c3c(=O)n(CCCc3ccccc3)c(=O)n2C)c(OC)c1 [6-(2,4-dimethoxyphenyl)-4-methyl-2-(3-phenylpropyl)-7,8-dihydropurin[7,8-a]imidazole-1,3-quinone]
5.16 | COC(=O)c1ccc2c(=O)n(C3CCCCC3)c(SCC#N)nc2c1 [2-(cyanomethylthio)-3-cyclohexyl-4-keto-quinazoline-7-carboxylic acid methyl ester]
< 4.02 | Cc1ccc2c(c1)N(CC(=O)Nc1ccc3c(c1)OCCO3)C(=O)CO2 [MLS000074457]
5.08 | Cc1ccsc1C(=O)OCC(=O)c1cc(C)n(CC2CCCO2)c1C (stereo not drawn) [3-methyl-2-thiophenecarboxylic acid [2-[2,5-dimethyl-1-(2-oxolanylmethyl)-3-pyrrolyl]-2-oxoethyl] ester]
4.63 | O=C(c1ccc(F)cc1)C(CN1CCOCC1)c1ccccc1 (stereo not drawn) [1-(4-fluorophenyl)-3-(4-morpholinyl)-2-phenyl-1-propanone;hydrochloride]
< 4.02 | Cc1ccc(O)c(NC(=O)CCC2CCCCC2)c1 [3-cyclohexyl-N-(2-hydroxy-5-methyl-phenyl)propionamide]

Same assay, conditions: inactive by the depositor's call

Compound | pEC50
CCCCOc1ccc(S(=O)(=O)n2c(C)nc3ccccc32)cc1 [1-(4-butoxyphenyl)sulfonyl-2-methyl-benzimidazole] | 4.54
Cc1ccc(S(=O)(=O)Nc2ccc3ncccc3c2)cc1 [4-methyl-N-(6-quinolinyl)benzenesulfonamide] | 4.97
CC(=O)N1C=CN(C(C)=O)C(c2cn(C)c3ccccc23)C1c1cn(C)c2ccccc12 (stereo not drawn) [1-[4-acetyl-2,3-bis(1-methyl-3-indolyl)-2,3-dihydropyrazin-1-yl]ethanone] | 4.68
CCCOC(=O)c1[nH]c2c(c1C)C(=O)CC(c1cc(OC)c(OC)c(OC)c1)C2 (stereo not drawn) [MLS000116504] | 4.89
Cc1nc(C)c(C(=O)Nc2ccc(Oc3ccccc3)cc2)o1 [2,4-dimethyl-N-(4-phenoxyphenyl)-1,3-oxazole-5-carboxamide] | 4.98
CC1=CC(C)(C)Nc2ccc(OC(=O)c3ccco3)cc21 | 4.75
CCOc1ccc(Cc2nc(-c3nonc3N)no2)cc1OCC [4-[5-(3,4-diethoxybenzyl)-1,2,4-oxadiazol-3-yl]-1,2,5-oxadiazol-3-amine] | 4.90

Second part, the compound after the results:

pEC50 | Compound
4.81 | Cc1nn(Cc2ccccc2)c(C)c1C(=O)OCC(=O)c1cc(C)n(C2CC2)c1C [1-benzyl-3,5-dimethyl-pyrazole-4-carboxylic acid [2-(1-cyclopropyl-2,5-dimethyl-pyrrol-3-yl)-2-keto-ethyl] ester]
4.93 | CS(=O)(=O)n1nc(OC(=O)c2cccc3ccccc23)cc1N [(5-amino-1-methylsulfonylpyrazol-3-yl) naphthalene-1-carboxylate]
4.99 | CCCn1c(NC(=O)c2cccc(S(=O)(=O)N3CCCC3)c2)nc2ccccc21 [MLS000057540]
4.86 | COc1ccc(-c2cc(C(=O)NC3CCCC3)no2)cc1OC [MLS000087117]
4.97 | Oc1ccc(N2CCN(c3ncnc4sc5c(c34)CCC5)CC2)cc1 [4-[4-(7,8-dihydro-6H-cyclopenta[4,5]thieno[1,2-c]pyrimidin-1-yl)-1-piperazinyl]phenol]
4.82 | Brc1ccc2ncnc(Nc3ccc(N4CCOCC4)cc3)c2c1 [(6-bromoquinazolin-4-yl)-(4-morpholinophenyl)amine]
4.81 | O=C(Nc1nc(-c2nc3ccccc3s2)cs1)c1ccc(S(=O)(=O)N2CCOCC2)cc1 [MLS000087900]

Reference: BindingDB's records for doi:10.7270/Q2ZC817P (The Scripps Research Institute Molecular Screening Center, 2007)
